Experimental data reported in patent US8802597B2, “Herbicidal pyrimidines” (E I du Pont de Nemours and Company, priority 2003, dated 2014).
Read-outs that look alike come from different tables or passages of the source.

Tests used:
Assay in all cases: Test C pre/postemergence
Format in all cases: in vivo
[1] = test system: giant foxtail (Setaria faberii); settings: Setaria faberi; for pest or weed control at 125 g/ha: 125 g ai/ha; for pest or weed control at 500 g/ha: 500 g ai/ha; for pest or weed control at 62 g/ha: 62 g ai/ha; for pest or weed control at 250 g/ha: 250 g ai/ha
Outline: (§1)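 Injury scored visually 12–14 days after application on 0–100 scale (100 = complete control), relative to controls. Compounds, formulated with surfactant in non-phytotoxic solvent, applied to soil at planting (pre) or to 1- to 4-leaf plants 2–18 cm tall (post) in greenhouse.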

[2] = test system: goosegrass (Eleusine indica); settings: Eleusine indica; for pest or weed control at 62 g/ha: 62 g ai/ha; for pest or weed control at 125 g/ha: 125 g ai/ha; for pest or weed control at 250 g/ha: 250 g ai/ha; for pest or weed control at 500 g/ha: 500 g ai/ha
Outline: as §1

[3] = test system: lambsquarters (Chenopodium album); settings: Chenopodium album; for pest or weed control at 62 g/ha: 62 g ai/ha; for pest or weed control at 125 g/ha: 125 g ai/ha; for pest or weed control at 250 g/ha: 250 g ai/ha; for pest or weed control at 500 g/ha: 500 g ai/ha
Outline: as §1

[4] = test system: woolly cupgrass (Eriochloa villosa); settings: Eriochloa villosa; for pest or weed control at 62 g/ha: 62 g ai/ha; for pest or weed control at 125 g/ha: 125 g ai/ha; for pest or weed control at 250 g/ha: 250 g ai/ha; for pest or weed control at 500 g/ha: 500 g ai/ha
Outline: as §1

[5] = test system: velvetleaf (Abutilon theophrasti); settings: Abutilon theophrasti; for pest or weed control at 62 g/ha: 62 g ai/ha; for pest or weed control at 125 g/ha: 125 g ai/ha; for pest or weed control at 250 g/ha: 250 g ai/ha; for pest or weed control at 500 g/ha: 500 g ai/ha
Outline: as §1

soybean (Glycine max) = settings: Glycine max; for plant injury at 62 g/ha: 62 g ai/ha; for plant injury at 125 g/ha: 125 g ai/ha
Outline: as §1

[6] = post-emergence, Postemergence, scale 0 to 100 (0 no effect, 100 complete control), read-out: Foxtail, Giant plant response rating
[7] = post-emergence, Postemergence, scale 0 to 100, read-out: Plant response rating, Foxtail, Giant
[8] = pre-emergence, Preemergence, scale 0 to 100, read-out: Plant response rating, Foxtail, Giant
[9] = post-emergence, Postemergence, scale 0 to 100 (0 no effect, 100 complete control), read-out: Goosegrass plant response rating
[10] = post-emergence, Postemergence, scale 0 to 100, read-out: Plant response rating, Goosegrass
[11] = pre-emergence, Preemergence, scale 0 to 100, read-out: Plant response rating, Goosegrass
[12] = post-emergence, Postemergence, scale 0 to 100 (0 no effect, 100 complete control), read-out: Lambsquarters plant response rating
[13] = post-emergence, Postemergence, scale 0 to 100, read-out: Plant response rating, Lambsquarters
[14] = pre-emergence, Preemergence, scale 0 to 100, read-out: Plant response rating, Lambsquarters
[15] = post-emergence, Postemergence, scale 0 to 100 (0 no effect, 100 complete control), read-out: Cupgrass, Woolly plant response rating
[16] = post-emergence, Postemergence, scale 0 to 100, read-out: Plant response rating, Cupgrass, Woolly
[17] = pre-emergence, Preemergence, scale 0 to 100, read-out: Plant response rating, Cupgrass, Woolly
[18] = post-emergence, Postemergence, scale 0 to 100 (0 no effect, 100 complete control), read-out: Velvetleaf plant response rating
[19] = post-emergence, Postemergence, scale 0 to 100, read-out: Plant response rating, Velvetleaf
[20] = pre-emergence, Preemergence, scale 0 to 100, read-out: Plant response rating, Velvetleaf
[21] = post-emergence, Postemergence, scale 0 to 100 (0 no effect, 100 complete control), read-out: Soybean plant response rating

## CCOC(=O)c1nc(C2CC2)nc(N)c1Br [Compound 1, ethyl 6-amino-5-bromo-2-cyclopropyl-4-pyrimidinecarboxylate]
[1]; [6]
  pest or weed control at 125 g/ha: 65%
  pest or weed control at 62 g/ha: 40%
[1]; [7]
  pest or weed control at 500 g/ha: 90%
  pest or weed control at 250 g/ha: 80%
[1]; pre-emergence, Preemergence, scale 0 to 100, 0 no effect, 100 complete control, read-out: Plant response rating, Foxtail, Giant
  pest or weed control at 62 g/ha: 0%
[1]; [8]
  pest or weed control at 125 g/ha: 30%
  pest or weed control at 250 g/ha: 90%
  pest or weed control at 500 g/ha: 90%
[2]; [9]
  pest or weed control at 62 g/ha: 0%
  pest or weed control at 125 g/ha: 0%
[2]; [10]
  pest or weed control at 250 g/ha: 40%
  pest or weed control at 500 g/ha: 70%
[2]; pre-emergence, Preemergence, scale 0 to 100, 0 no effect, 100 complete control, read-out: Plant response rating, Goosegrass
  pest or weed control at 62 g/ha: 0%
[2]; [11]
  pest or weed control at 125 g/ha: 0%
  pest or weed control at 250 g/ha: 10%
  pest or weed control at 500 g/ha: 70%
[3]; [12]
  pest or weed control at 62 g/ha: 100%
  pest or weed control at 125 g/ha: 100%
[3]; [13]
  pest or weed control at 250 g/ha: 100%
  pest or weed control at 500 g/ha: 100%
[3]; pre-emergence, Preemergence, scale 0 to 100, 0 no effect, 100 complete control, read-out: Plant response rating, Lambsquarters
  pest or weed control at 62 g/ha: 95%
[3]; [14]
  pest or weed control at 125 g/ha: 100%
  pest or weed control at 250 g/ha: 100%
  pest or weed control at 500 g/ha: 100%
[4]; [15]
  pest or weed control at 62 g/ha: 65%
  pest or weed control at 125 g/ha: 80%
[4]; [16]
  pest or weed control at 250 g/ha: 90%
  pest or weed control at 500 g/ha: 90%
[4]; pre-emergence, Preemergence, scale 0 to 100, 0 no effect, 100 complete control, read-out: Plant response rating, Cupgrass, Woolly
  pest or weed control at 62 g/ha: 0%
[4]; [17]
  pest or weed control at 125 g/ha: 60%
  pest or weed control at 250 g/ha: 90%
  pest or weed control at 500 g/ha: 95%
[5]; [18]
  pest or weed control at 62 g/ha: 85%
  pest or weed control at 125 g/ha: 90%
[5]; [19]
  pest or weed control at 250 g/ha: 100%
  pest or weed control at 500 g/ha: 100%
[5]; pre-emergence, Preemergence, scale 0 to 100, 0 no effect, 100 complete control, read-out: Plant response rating, Velvetleaf
  pest or weed control at 62 g/ha: 80%
[5]; [20]
  pest or weed control at 125 g/ha: 90%
  pest or weed control at 250 g/ha: 95%
  pest or weed control at 500 g/ha: 100%
Soybean (Glycine max); [21]
  plant injury at 62 g/ha: 100%
  plant injury at 125 g/ha: 100%
Soybean (Glycine max); post-emergence, Postemergence, 250 g ai/ha, scale 0 to 100, read-out: Plant response rating, Soybean
  plant injury at 250 g/ha: 100%
Soybean (Glycine max); post-emergence, Postemergence, 500 g ai/ha, scale 0 to 100, read-out: Plant response rating, Soybean
  plant injury at 500 g/ha: 100%
Soybean (Glycine max); pre-emergence, Preemergence, scale 0 to 100, 0 no effect, 100 complete control, read-out: Plant response rating, Soybean
  plant injury at 62 g/ha: 85%
Soybean (Glycine max); pre-emergence, Preemergence, scale 0 to 100, read-out: Plant response rating, Soybean
  plant injury at 125 g/ha: 100%
